The target of assay [1] is T1, Hexokinase-1 (Homo sapiens, UniProt P19367).
T1 sequence (P19367 whole entry): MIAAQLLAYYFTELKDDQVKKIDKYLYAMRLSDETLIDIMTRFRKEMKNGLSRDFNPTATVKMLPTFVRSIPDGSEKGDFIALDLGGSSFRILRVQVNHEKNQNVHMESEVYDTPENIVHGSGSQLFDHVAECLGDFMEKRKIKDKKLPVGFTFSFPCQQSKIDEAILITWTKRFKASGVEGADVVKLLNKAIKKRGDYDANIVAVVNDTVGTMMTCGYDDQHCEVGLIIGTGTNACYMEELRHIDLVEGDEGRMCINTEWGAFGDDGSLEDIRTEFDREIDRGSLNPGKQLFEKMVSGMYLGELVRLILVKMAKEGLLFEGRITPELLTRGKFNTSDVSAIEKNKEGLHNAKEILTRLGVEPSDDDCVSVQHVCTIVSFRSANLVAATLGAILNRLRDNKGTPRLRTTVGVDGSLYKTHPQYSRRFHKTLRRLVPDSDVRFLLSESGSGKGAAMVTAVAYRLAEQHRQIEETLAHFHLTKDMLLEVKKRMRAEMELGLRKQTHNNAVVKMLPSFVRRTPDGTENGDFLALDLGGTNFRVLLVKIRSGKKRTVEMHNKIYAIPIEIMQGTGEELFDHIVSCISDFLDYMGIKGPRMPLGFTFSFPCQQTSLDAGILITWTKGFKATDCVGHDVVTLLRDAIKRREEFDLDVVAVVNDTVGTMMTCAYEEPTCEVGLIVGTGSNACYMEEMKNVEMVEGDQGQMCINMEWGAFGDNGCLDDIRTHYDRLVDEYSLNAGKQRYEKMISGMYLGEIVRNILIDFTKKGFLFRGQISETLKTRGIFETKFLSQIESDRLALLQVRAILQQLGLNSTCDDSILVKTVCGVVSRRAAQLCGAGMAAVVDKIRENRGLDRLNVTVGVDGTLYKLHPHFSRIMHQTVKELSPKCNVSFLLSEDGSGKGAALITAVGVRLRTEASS
As to the kind of experiment: SAR analysis of small molecule inhibitors of hexokinase domain containing I (HKDC1) in the hexokinase 1 selectivity assay. [Related pubchem assays (depositor defined):AID493160, AID493190]. The class given is functional.

The target in assay [2] is T2, Hexokinase HKDC1 (Homo sapiens, UniProt Q2TB90).
T2 sequence (Q2TB90 whole entry): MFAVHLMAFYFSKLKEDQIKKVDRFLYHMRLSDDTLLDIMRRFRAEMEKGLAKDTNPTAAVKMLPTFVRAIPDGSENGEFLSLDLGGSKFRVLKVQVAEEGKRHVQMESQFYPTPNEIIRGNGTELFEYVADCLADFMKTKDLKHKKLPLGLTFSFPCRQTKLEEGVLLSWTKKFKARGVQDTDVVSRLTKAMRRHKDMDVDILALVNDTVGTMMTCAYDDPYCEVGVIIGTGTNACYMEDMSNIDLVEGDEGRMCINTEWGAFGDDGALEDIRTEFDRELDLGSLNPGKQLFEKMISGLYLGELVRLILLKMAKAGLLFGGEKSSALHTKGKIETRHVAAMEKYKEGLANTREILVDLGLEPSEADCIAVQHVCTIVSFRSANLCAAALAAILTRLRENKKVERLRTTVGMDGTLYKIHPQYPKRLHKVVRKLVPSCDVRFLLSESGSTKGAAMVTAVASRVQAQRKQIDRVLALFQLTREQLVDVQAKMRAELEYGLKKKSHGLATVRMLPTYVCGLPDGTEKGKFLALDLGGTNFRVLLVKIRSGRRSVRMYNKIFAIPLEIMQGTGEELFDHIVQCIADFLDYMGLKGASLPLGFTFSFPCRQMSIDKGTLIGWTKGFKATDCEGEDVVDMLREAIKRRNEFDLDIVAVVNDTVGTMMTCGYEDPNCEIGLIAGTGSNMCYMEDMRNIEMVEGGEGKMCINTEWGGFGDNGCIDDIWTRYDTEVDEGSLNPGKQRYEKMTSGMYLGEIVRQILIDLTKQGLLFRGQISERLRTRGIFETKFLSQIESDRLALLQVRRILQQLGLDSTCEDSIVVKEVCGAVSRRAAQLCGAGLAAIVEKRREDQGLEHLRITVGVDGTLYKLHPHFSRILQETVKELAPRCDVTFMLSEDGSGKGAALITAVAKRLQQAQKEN
The assay can be described thus: SAR analysis of small molecule inhibitors of hexokinase domain containing I (HKDC1). [Related pubchem assays (depositor defined):AID493160, AID493190]. In kind it is functional.

Assay [3] deals with T1, Hexokinase-1. The assay can be described thus: HK1 enzyme inhibition by HKDC1 hits, SAR follow-up, selectivity assay for HKDC1 inhibitor project, biochemical, set 2, resazurin fluorescence coupled readout (AID 588356). In kind it is functional. In general terms: Alamar Blue is a resazurin reagent that responds to reducing activity.
Assay [4] has as its target T2, Hexokinase HKDC1. The assay can be described thus: HKDC1 hexokinase inhibitors, SAR follow-up, biochemical, set 2 (AID 588355). The class given is functional.
Assay [5] is described as follows: growth suppression of PTEN-null colon cells, dose response, cell-based, HCT116 PTEN knockout (AID 1047).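 Also: HCT116 colon tumor cells with PTEN knocked out; cells exposed to compound for 60 hours before readout; potency for loss of cell viability measured by luminescence.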 The class given is functional.
Assay [6] can be described thus: growth suppression of beta-catenin-knockout colon cells, dose response, cell-based, HCT116, human colon tumor (AID 1045).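 Also: HCT116 colon tumor cells with beta catenin knocked out; cells exposed to compound for 60 hours.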 In kind it is functional.
In assay [7] the target is T3, Mannose-6-phosphate isomerase (Homo sapiens, UniProt P34949).
T3 sequence (P34949 whole entry): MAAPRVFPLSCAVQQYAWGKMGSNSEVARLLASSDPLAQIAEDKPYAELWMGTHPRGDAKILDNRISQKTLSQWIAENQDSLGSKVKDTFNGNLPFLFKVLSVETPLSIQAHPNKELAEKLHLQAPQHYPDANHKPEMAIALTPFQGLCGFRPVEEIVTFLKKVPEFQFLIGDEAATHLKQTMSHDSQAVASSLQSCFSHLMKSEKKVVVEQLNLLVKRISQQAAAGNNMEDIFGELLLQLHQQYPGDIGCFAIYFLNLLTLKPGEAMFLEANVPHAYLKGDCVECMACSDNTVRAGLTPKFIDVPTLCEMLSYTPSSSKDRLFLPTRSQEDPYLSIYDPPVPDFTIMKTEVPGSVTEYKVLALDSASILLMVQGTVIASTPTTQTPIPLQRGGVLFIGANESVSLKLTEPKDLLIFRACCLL
As to the kind of experiment: human PMI inhibitors, high substrate, primary screen, biochemical, fluorescence intensity, high mannose 6-phosphate (AID 1220).

Assay [8] has as its system Vero. The assay can be described thus: Vero cell cytotoxicity, cytotoxicity control for flavivirus capping enzyme inhibitors (AID 588742). In kind it is functional. The conditions noted are these: Chlorocebus sabaeus.
The target of a further assay is Protein Tat (Human immunodeficiency virus type 1 group M subtype B (isolate HXB2)(HIV-1), UniProt P04608). The class given is functional.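 Also: tat binding to TAR RNA read out by fluorescence polarization.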
Assay [9] can be described thus: THP-1 cell cytotoxicity, dose response, cytotoxicity control for Vif-APOBEC3G degradation inhibitor project, THP-1 cells (AID 1117359). The class given is functional. The conditions noted are these: Human immunodeficiency virus 1, THP-1.
Another assay deals with Nonstructural protein 1 (Influenza A virus, UniProt Q194T2). The class given is functional, Influenza A virus (A/California/07/2009(H1N1)).
Assay [10] has as its target Heat shock protein HSP 90-alpha (Homo sapiens, UniProt P07900). In kind it is functional, organism-based.
Assay [11] deals with Vero. As to the kind of experiment: Vero E6 cell cytotoxicity, dose response, cytotoxicity control (AID 540298). The class given is functional. The following applies: Chlorocebus sabaeus.
For assay [12], the system named is MDCK. The assay can be described thus: MDCK cell cytotoxicity, dose response, cytotoxicity control (AID 540296). In kind it is functional. The conditions noted are these: Canis lupus familiaris.
Assay [13] deals with Delta-type opioid receptor (Homo sapiens, UniProt P41143). As to the kind of experiment: Counterscreen for agonists of heterodimerization of the mu 1 (OPRM1) and delta 1 (OPRD1) opioid receptors: Luminescence-based cell-based high throughput dose response assay to identify agonists of OPRD1 homodimerization. [Related pubchem assays (depositor defined):AID504326, AID504355, AID504692, AID504904, AID504905]. The class given is functional.

In assay [14] the test system is MDCK. The assay can be described thus: antiviral activity against H1N1 influenza, dose response, cell-based, strain KY136 (AID 540257). The class given is functional. The conditions noted are these: Canis lupus familiaris.
A further assay concerns the target Mu-type opioid receptor (Homo sapiens, UniProt P35372). As to the kind of experiment: Counterscreen for agonists of heterodimerization of the mu 1 (OPRM1) and delta 1 (OPRD1) opioid receptors: Luminescence-based cell-based high throughput dose response assay to identify agonists of OPRM1 homodimerization. The class given is functional. (In general: Counterscreens check selectivity or assay interference.);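 also: U2OS cells expressing OPRM1 and beta-arrestin as split beta-galactosidase partners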

Assay [15] addresses 5-hydroxytryptamine receptor 5A (Homo sapiens, UniProt P47898). The assay can be described thus: Counterscreen for agonists of OPRM1-OPRD1 heterodimerization: luminescence-based cell-based high throughput dose response assay to identify agonists of 5-hydroxytryptamine (serotonin) 5A receptor (HTR5A). [Related pubchem assays (depositor defined):AID504326, AID504355, AID504692, AID504904, AID504905]. The class given is functional.

Molecules are shown by their SMILES. The source made the active and inactive calls.

Chain of Protein Tat (P04608 whole entry): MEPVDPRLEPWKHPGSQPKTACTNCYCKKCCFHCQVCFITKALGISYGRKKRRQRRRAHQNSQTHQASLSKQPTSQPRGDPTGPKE
Chain of 5-hydroxytryptamine receptor 5A (P47898 whole entry): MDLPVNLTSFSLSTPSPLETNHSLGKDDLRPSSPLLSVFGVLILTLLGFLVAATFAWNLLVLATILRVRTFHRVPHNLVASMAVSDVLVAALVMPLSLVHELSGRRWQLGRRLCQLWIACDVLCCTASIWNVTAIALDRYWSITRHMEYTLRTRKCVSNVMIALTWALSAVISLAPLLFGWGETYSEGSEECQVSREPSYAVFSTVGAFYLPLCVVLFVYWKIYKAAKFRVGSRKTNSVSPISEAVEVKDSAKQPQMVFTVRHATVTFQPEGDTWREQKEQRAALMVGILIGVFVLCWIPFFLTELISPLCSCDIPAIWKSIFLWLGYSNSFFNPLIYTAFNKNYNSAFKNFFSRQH
Chain of Mu-type opioid receptor (P35372 whole entry): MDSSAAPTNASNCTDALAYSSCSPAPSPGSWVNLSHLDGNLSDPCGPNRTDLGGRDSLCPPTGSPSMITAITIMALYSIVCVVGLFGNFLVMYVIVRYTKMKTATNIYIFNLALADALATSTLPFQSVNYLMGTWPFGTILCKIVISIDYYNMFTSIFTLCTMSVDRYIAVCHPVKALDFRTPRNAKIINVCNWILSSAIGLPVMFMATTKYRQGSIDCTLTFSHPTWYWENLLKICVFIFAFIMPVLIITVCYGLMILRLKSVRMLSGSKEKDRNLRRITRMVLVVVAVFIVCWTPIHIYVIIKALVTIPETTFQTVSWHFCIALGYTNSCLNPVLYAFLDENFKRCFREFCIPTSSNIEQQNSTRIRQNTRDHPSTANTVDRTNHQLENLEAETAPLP
Chain of Nonstructural protein 1 (Q194T2 whole entry): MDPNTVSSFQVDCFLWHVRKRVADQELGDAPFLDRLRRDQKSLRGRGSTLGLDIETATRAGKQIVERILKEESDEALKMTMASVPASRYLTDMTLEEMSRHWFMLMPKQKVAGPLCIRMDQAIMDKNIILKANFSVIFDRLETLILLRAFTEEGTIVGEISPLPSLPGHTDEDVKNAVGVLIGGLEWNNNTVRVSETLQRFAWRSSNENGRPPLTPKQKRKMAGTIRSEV
Chain of Delta-type opioid receptor (P41143 whole entry): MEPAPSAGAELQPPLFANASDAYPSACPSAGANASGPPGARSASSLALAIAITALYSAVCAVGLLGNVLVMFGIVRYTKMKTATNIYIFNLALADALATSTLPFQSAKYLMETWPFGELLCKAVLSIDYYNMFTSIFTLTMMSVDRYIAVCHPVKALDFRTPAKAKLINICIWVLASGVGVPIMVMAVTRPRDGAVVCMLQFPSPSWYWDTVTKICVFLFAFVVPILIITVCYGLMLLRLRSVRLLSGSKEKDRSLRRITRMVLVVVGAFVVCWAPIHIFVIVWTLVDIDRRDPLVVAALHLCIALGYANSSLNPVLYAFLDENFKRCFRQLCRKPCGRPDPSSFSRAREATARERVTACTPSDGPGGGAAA

In general, IC50 refers to the concentration at which inhibition is half-maximal. For the molecule `O=C(O)CCSc1cc(NS(=O)(=O)c2ccccc2)c2ccccc2c1O`, the IC50 is 62.4 µM (inactive) at Hexokinase-1 [1] and 7.53 µM (active) on Hexokinase HKDC1 [2].
Consider `Cc1ccccc1N1C(=O)c2ccccc2C1Nc1ccc(Cl)cc1` (stereo not drawn), for which the IC50 at Hexokinase-1 [3] and at Hexokinase HKDC1 [4] was > 80 µM (inactive) throughout.
Usually EC50 stands for the concentration that produces a half-maximal response. By CC50 is commonly meant the concentration at which the toxic effect on the cells reaches its halfway point. As for `CCOc1cccc(CNc2ccc(O)cc2)c1OCc1ccc(Cl)cc1`, the EC50 was 25.2 µM (active) in [5] and 29.4 µM (active) in assay [6]. The IC50 in assay [7] is > 50 µM (not active); at Protein Tat, 86 µM (inconclusive). In addition, the CC50 in the assay with Vero [8] was > 40 µM (active); in assay [9], 37 µM (active).
One may read the AC50 as the midpoint of the concentration-response curve, whichever way the signal moves. Regarding `O=C(C=P(c1ccccc1)(c1ccccc1)c1ccccc1)c1ccccc1-c1ccccc1C(=O)C=P(c1ccccc1)(c1ccccc1)c1ccccc1`, the IC50 on Nonstructural protein 1 is 58.5 µM (active); with MDCK [14], 2.54 µM (active). Also, the AC50 in assay [10] was 8.19 µM (active). Also, the values for the CC50 with Vero [11] and in the assay with MDCK [12] were 3.43 µM (active) and 6.63 µM (active), respectively. Further, the EC50 (in assay [13]; at Mu-type opioid receptor; in [15]) was > 92.5 µM (inactive) each time.
